From US9073985B2, “Methods and products for treating proliferative diseases” (The Regents of the University of Colorado, a body corporate, priority 2008, dated 2015)

Test system: melanoma cells
Assay: In vitro treatment of tumor cells in culture, flow cytometry (cell cycle analysis, cell death)
Assay type: cell-based
Details: melanoma cells treated in vitro
Experimental: Tumor cells (B16.F1, NIT-1, or MCF7) were thawed from liquid nitrogen. The tumor cells were transferred into a 15 milliliter (ml) conical tube using a sterile bulb pipette. Using a balance, the tubes were balanced with cells and spun in the centrifuge. The liquid was removed using the vacuum, leaving the pellet of cells. The cells were mixed using two mls of the RPMI. In a 24 well plate, 1 ml of RPMI was placed in each well. One ml of cells was placed into the first well and the second ml was missed into the second well, then one ml was transferred from the second well into the third. The process was repeated until one ml will remain for the last well (serial dilutions). After two to three days the cells were confluent enough to transfer from a well into a flask. After around 24 hours the treatments were added to the appropriate flasks (control, chloroquine, Avastin, both). After 48 hrs. the cells were stained using lysotracker and propidium idodide. The plate was run in the flow cytometer to check the growth arrest and the amount of lysosomic activity as well as the amount of cell death.

avastin: humanized monoclonal antibody against VEGF-A, trade name Avastin, Genentech/Roche
growth arrest by cell cycle analysis: growth arresting the melanoma cells in G0-G1 phase
